Measurements as given in patent publication US10420815B2, “Combinational therapy for synergistic inhibition of gram-positive and gram-negative bacteria” (priority 2015, dated 2019).
Entries after “also recorded” stand apart in the source; their conditions may differ. Like-named read-outs stand apart in the source and are kept apart here.

Experiments:
MRSA USA300 = test: Biofilm assay (crystal violet); format: cell-based, Staphylococcus aureus; conditions: LG at different concentrations plus 10^−4 U bacitracin; 18 h; listed as LG
Method: Biofilm assays were performed as described previously^30. Briefly, overnight culture of MRSA was diluted 1:100 in TS broth and was grown in a 96-well microtiter plate in the presence or absence (a negative control) of combinations of bacitracin and lauryl gallate at different concentrations. After aerobic incubation at 37° C. for 18 h, biofilms were washed and stained with crystal violet. After washing unbound crystal violet, the absorbance at 630 nm was measured with FLUOstar Omega® (BMG Labtech).

MRSA USA300 (BAA-1680) [1] = test: Growth kinetics (OD600) with bacitracin, alkyl gallates and combinations; format: cell-based, Staphylococcus aureus; conditions: bacitracin 0.001 U to 100 U
Source text: (§1) MRSA (ATCC 33593), MSSA (ATCC 29213), and MRSA USA300 (BAA-1680) strains were purchased from the American Type Culture Collection (ATCC; Manassas, Va.). Eight clinical isolates of MRSA were obtained from the Culture Collection of Antimicrobial Resistant Microbes, Korea National Research Resource Center (KNRRC). Salmonella enterica Typhimurium LT2 was purchased from ATCC, and Escherichia coli O157:H7 is a kind gift from Dr. Sangryeol Ryu (Seoul National University, South Korea). All S. aureus strains were maintained in Trypticase Soy (TS) medium, and E. coli O157:H7 and Salmonella were routinely grown aerobically on Luria-Bertani (LB) media at 37° C. For measuring growth kinetics, an overnight culture of MRSA in Mueller-Hinton (MH) broth was diluted 100-fold in fresh MH broth and cultured until early exponential phase. The culture (200 μl) was transferred to each well of a sterile 96-well plate and incubated at 37° C. with bacitracin alone, alkyl gallate alone, and combination of bacitracin/alkyl gallates at various concentrations. The optical density at 600 nm (OD600) was measured every hour with FLUOstar® Omega (BMG Labtech, Germany).

[2] = system: MRSA (normal MRSA strain, not USA300); test: MRSA growth (optical density) with bacitracin and phenolic antioxidants; format: cell-based, Staphylococcus aureus
Source text: as §1
MRSA were grown with bacitracin (0.002 μg/mL) with antioxidant (as shown) at 0.5 μg/mL.
FIG. 7A is growth with no added bacitracin or lauryl gallate.
The optical density of MRSA was measured after 18 h culture with bacitracin (0.002 μg/ml) and antioxidants (as indicated at 0.5 μg/ml). Also measured were controls with no additions, with bacitracin alone and with antioxidant alone. FIGS. 8A, 8B, 8C and 8D are graphs illustrating the results.

Escherichia coli O157:H7 = test: microbe, parasite or virus in culture; format: cell-based; conditions: for MBC / MIC: Escherichia coli
Source text: as §1
(§2) Broth micro dilution assays were performed to determine the minimum inhibitory concentrations (MIC) accordance to the M7-A7 protocol of the Clinical and Laboratory Standards Institute (CLSI) guidelines^28. The susceptibility test was carried out with an initial bacterial inoculum of 1.5×10^5 CFU ml^−1. Alkyl gallates and bacitracin were serially diluted in a polystyrene 96 well plate and the plate was incubated at 37° C. for 24 h. Minimum bactericidal concentration (MBC) was determined by spotting 10 μl of cultures from MIC tests onto MH agar and incubated aerobically at 37° C.
(§3) MIC and MBC were measured as described above. MIC and MBC data are shown in Table 5 for both the Salmonella and the E. coli strain tested. The tested strains were highly resistant to bacitracin.

MRSA USA300 (BAA-1680) [3] = test: microbe, parasite or virus in culture; format: cell-based, Staphylococcus aureus; set-up: MBC of bacitracin in combination with OG / fold reduction in bacitracin MBC: dose or concentration left out as unconfirmed; conditions: for MBC of bacitracin in combination with alkyl gallate / fold decrease in bacitracin MBC: 5 μg ml^−1 alkyl gallate; for fold decrease in bacitracin MBC: versus bacitracin MBC 200 U; for bactericidal activity in combination with bacitracin: FIG. 2; for MBC / MIC: agent alone
Source text: as §1, §2

MSSA (ATCC 29213) = test: MIC (broth dilution) and MBC (spotting) of phenolic antioxidants and bacitracin; format: cell-based, Staphylococcus aureus; conditions: for MIC: antioxidant alone
Source text: as §1, §2
(§4) MICs were determined with MRSA and methicillin-sensitive S. aureus (MSSA) using a broth dilution method as described above.
(§5) MRSA and MSSA were cultured overnight with antioxidants (0.5 μg/ml) and bacitracin at various concentrations and 10 μL of the culture was spotted on MH agar plates and incubated aerobically at 37° C. to observe the bacterial viability. The results in FIGS. 9A, 9B, 9C and 9D (photographs of plates) show the Minimal Bactericidal Concentrations (MBCs) for indicated antioxidants. Bacitracin killed MRSA and MSSA at concentrations greater than or equal to 2 μg/mi.

MRSA 3876 = test: microbe, parasite or virus in culture; format: cell-based, Staphylococcus aureus; conditions: Staphylococcus aureus
Source text: as §1, §2

MRSA 3095 = test: microbe, parasite or virus in culture; format: cell-based, Staphylococcus aureus; conditions: Staphylococcus aureus
Source text: as §1, §2

MRSA 3823 = test: microbe, parasite or virus in culture; format: cell-based, Staphylococcus aureus; conditions: Staphylococcus aureus
Source text: as §1, §2

MRSA 3903 = test: microbe, parasite or virus in culture; format: cell-based, Staphylococcus aureus; conditions: for MIC: Staphylococcus aureus
Source text: as §1, §2

MRSA 3799 = test: microbe, parasite or virus in culture; format: cell-based, Staphylococcus aureus; conditions: for MIC: Staphylococcus aureus
Source text: as §1, §2

MRSA 3A585 = test: microbe, parasite or virus in culture; format: cell-based, Staphylococcus aureus; conditions: Staphylococcus aureus
Source text: as §1, §2

MRSA 3795 = test: microbe, parasite or virus in culture; format: cell-based, Staphylococcus aureus; conditions: Staphylococcus aureus
Source text: as §1, §2

MRSA 3865 = test: microbe, parasite or virus in culture; format: cell-based, Staphylococcus aureus; conditions: Staphylococcus aureus
Source text: as §1, §2

MRSA (ATCC 33593) = test: microbe, parasite or virus in culture; format: cell-based, Staphylococcus aureus; conditions: MRSA; for MIC: antioxidant alone
Source text: as §1, §2, §4, §5

[4] = system: Salmonella enterica Typhimurium LT2; test: MIC and MBC, alone and bacitracin/alkyl gallate combinations; format: cell-based; conditions: for MBC / MIC: Salmonella enterica, S. Typhimurium, agent alone
Source text: as §1, §2, §3

[5] = system: human clinical isolates of MRSA with multidrug- and hyper-resistance; test: Bactericidal activity of OG plus bacitracin against clinical isolates; format: cell-based, Staphylococcus aureus
Source text: as §1, with “The culture (200 μl) was transferred to each well of a sterile 96-well plate and incubated at 37° C. with bacitracin alone, alkyl gallate alone, and combination of bacitracin/alkyl gallates at various concentrations.” left out
Broth micro dilution assays were performed to determine the minimum inhibitory concentrations (MIC) accordance to the M7-A7 protocol of the Clinical and Laboratory Standards Institute (CLSI) guidelines^28. […] Minimum bactericidal concentration (MBC) was determined by spotting 10 μl of cultures from MIC tests onto MH agar and incubated aerobically at 37° C. […]

USA300 = test: Bacterial membrane permeability (propidium iodide fluorescence); format: cell-based, Staphylococcus aureus
Method: Membrane permeability was determined by measuring fluorescence after exposure of USA300 to propidium iodide as described previously^29. Briefly, USA300 was grown in MH broth to the exponential phase and then diluted to OD600≈0.25. Propidium iodide was mixed with bacteria to a final concentration of 10 μM. […] Fluorescence was monitored at excitation and emission wavelengths of 585 nm and 620 nm, respectively, for 1 h using FLUOstar Omega® (BMG Labtech, Germany). The membrane permeability was calculated by subtracting fluorescence intensity of controls without treatment with phenolic compounds from that of treated samples. EDTA (1 mM) was used as a positive control.

[6] = Staphylococcus aureus, read-out: MIC
[7] = antioxidant 0.5 μg/ml, compared to bacitracin alone

CCCCCCCCCCCCOC(=O)c1cc(O)c(O)c(O)c1 [Lauryl gallate, lauryl gallate]
biofilm formation (MRSA USA300): substantial reduction in the level of biofilm formation; also recorded: significant anti-biofilm effects
growth inhibition by bacitracin in combination with alkyl gallate (MRSA USA300 (BAA-1680) [1]): significant growth inhibition
growth of MRSA with bacitracin plus antioxidant ([2]; bacitracin 0.002 μg/mL, antioxidant 0.5 μg/mL, FIG. 6): significantly inhibited the growth of MRSA
optical density of MRSA after 18 h culture: inhibition of growth in combination with bacitracin ([2]; bacitracin 0.002 μg/ml (ca. 0.0002 U), antioxidant 0.5 μg/ml, 18 h, FIG. 8): significantly inhibited MRSA
concentration of lauryl gallate alone that inhibited MRSA growth ([2]; lauryl gallate 0.5 μg/mL to 256 μg/mL, FIG. 7C): 256 µg/mL
MRSA growth inhibition by lauryl gallate in combination with bacitracin ([2]; lauryl gallate 0.5 μg/ml, bacitracin 0.0019 μg/mL to 1 μg/mL, FIG. 7D): synergistically inhibited MRSA growth
synergistic effect with bacitracin (Escherichia coli O157:H7; E. coli O157:H7, FIG. 10): more moderate synergistic effects
MBC (Escherichia coli O157:H7): 1020 µg/mL
MIC (Escherichia coli O157:H7): 512 µg/mL
MBC of bacitracin in combination with alkyl gallate (MRSA USA300 (BAA-1680) [3]): 10^−1 U
fold decrease in bacitracin MBC (MRSA USA300 (BAA-1680) [3]): 2,000 fold
bactericidal activity in combination with bacitracin (MRSA USA300 (BAA-1680) [3]): synergistic antimicrobial activity
MBC (MRSA USA300 (BAA-1680) [3]): 64 µg/mL
MIC (MRSA USA300 (BAA-1680) [3]): 32 µg/mL
MIC (MSSA (ATCC 29213); [6]): 64 µg/mL
fold decrease of bacitracin MBC by antioxidant (MSSA (ATCC 29213); [7]): > 1,000 fold
MIC (MSSA (ATCC 29213)): 128 µg/mL
MIC (MRSA 3876; MRSA 3876 (human/skin), read-out: MIC): 64 µg/mL
MIC (MRSA 3095; MRSA 3095 (human/skin), read-out: MIC): 64 µg/mL
MIC (MRSA 3823; MRSA 3823 (human/nose), read-out: MIC): 64 µg/mL
MIC (MRSA 3903; MRSA 3903 (human/skin), read-out: MIC): 64 µg/mL
MIC (MRSA 3799; MRSA 3799 (human/nose), read-out: MIC): 32 µg/mL
MIC (MRSA 3A585; MRSA 3A585 (human/blood), read-out: MIC): 64 µg/mL
MIC (MRSA 3795; MRSA 3795 (human/nose), read-out: MIC): 64 µg/mL
MIC (MRSA 3865; MRSA 3865 (human/skin), read-out: MIC): 64 µg/mL
fold decrease of bacitracin MBC by antioxidant (MRSA (ATCC 33593); [7]): 512 fold
MIC (MRSA (ATCC 33593)): 128 µg/mL
MIC (MRSA (ATCC 33593); [6]): 64 µg/mL
MBC [4]: > 1020 µg/mL
MIC [4]: > 1020 µg/mL
synergistic effect with bacitracin ([4]; Salmonella, FIG. 10): more moderate synergistic effects

CCCCCCCCOC(=O)c1cc(O)c(O)c(O)c1 [Octyl gallate (OG), octyl gallate]
growth inhibition by bacitracin in combination with alkyl gallate (MRSA USA300 (BAA-1680) [1]): completely inhibited the growth of USA300
fold change in bacitracin MBC (Escherichia coli O157:H7; E. coli O157:H7, 5 μg ml^−1 OG): > 1,000,000 fold
MBC (Escherichia coli O157:H7): 512 µg/mL
MIC (Escherichia coli O157:H7): 256 µg/mL
MBC of bacitracin in combination with alkyl gallate (MRSA USA300 (BAA-1680) [3]): 10^−3 U
fold decrease in bacitracin MBC (MRSA USA300 (BAA-1680) [3]): 200,000 fold
bactericidal activity in combination with bacitracin (MRSA USA300 (BAA-1680) [3]): Most significant bactericidal activity
MBC of bacitracin in combination with OG (MRSA USA300 (BAA-1680) [3]; OG): 10^−4 U
fold reduction in bacitracin MBC (MRSA USA300 (BAA-1680) [3]; OG): 2,000,000 fold
MBC (MRSA USA300 (BAA-1680) [3]): 64 µg/mL
MIC (MRSA USA300 (BAA-1680) [3]): 32 µg/mL
killing of clinical MRSA isolates by OG plus bacitracin ([5]; FIG. 3): successfully killed all the tested clinical MRSA isolates; also recorded: effectively killed clinical MRSA isolates
bacitracin level at which most strains were killed with OG ([5]; most clinical MRSA strains, 5 μg ml^−1 OG): 10^−3 U
membrane permeability, OG in the presence of bacitracin (USA300; OG plus bacitracin): more significantly increased membrane permeability than OG treatment without bacitracin; also recorded: significantly altered membrane permeability
membrane permeability (USA300; agent alone, sub-MIC levels, EDTA 1 mM): permeabilized the membrane in a concentration-dependent manner; also recorded: increased the membrane permeability
MIC (MRSA 3876; MRSA): 16 µg/mL
MIC (MRSA 3095; MRSA): 16 µg/mL
MIC (MRSA 3823; MRSA): 16 µg/mL
MBC of bacitracin with OG (MRSA 3903; MRSA 3903, 5 μg ml^−1 OG): 10^−2 U
MIC (MRSA 3903; MRSA): 16 µg/mL
MBC of bacitracin with OG (MRSA 3799; MRSA 3799, 5 μg ml^−1 OG): 10^−2 U
MIC (MRSA 3799; MRSA): 16 µg/mL
MIC (MRSA 3A585; MRSA): 16 µg/mL
MIC (MRSA 3795; MRSA): 16 µg/mL
MIC (MRSA 3865; MRSA): 16 µg/mL
MBC [4]: 512 µg/mL
MIC [4]: 256 µg/mL
fold change in bacitracin MBC ([4]; Salmonella, 5 μg ml^−1 OG): > 1,000,000 fold
